Measured values published in article PMC12247020, “A Cyclized Helix‐Loop‐Helix Peptide as a Molecular Scaffold for Cell‐Membrane Permeable Inhibitors for the Interaction Between Estrogen Receptor α and Coactivator SRC1” (Chembiochem, 2025).
Bridge positions count the residues as written; N and C are the ends. Peptide text beside a SMILES is read from it.

Experiments:
[1] = tested on: human ERα and the transcriptional coactivator SRC1; test: Yeast reporter assay (lacZ, β‐galactosidase) for ERα–SRC1 antagonism; format: cell-based; conditions: 100 μM peptide, 17β‐estradiol (10 and 100 nM), 18 h, 30 °C
Text: The expression plasmids for human ERα and the transcriptional coactivator SRC1 were transformed, along with the lacZ reporter plasmid carrying the estrogen response element (RE).^[ [13] ^] The production of ERα and SRC1 was regulated by the galactose‐inducible GAL1‐10 promoter. In response to 17β‐estradiol, ERα, and SRC1 formed a complex on the RE, inducing the ligand‐dependent expression of β‐galactosidase (Figure S8, Supporting Information). The genes encoding the major cell wall mannoproteins Cwp1p and Cwp2p were deleted,^[ [30] ^] probably allowing the cHLH peptides to access the cell membrane by passing through the less dense cell wall of the yeast strain.^[ [32] ^] The effect of the cHLH peptide on the ERα–SRC1 interaction was examined in the presence of 17β‐estradiol (10 and 100 nM).
As previously reported,^[ [30] ^] the yeast strain ERα cwp1Δcwp2Δ was cultured on agar plates with synthetic dextrose (glucose) complete (SDC) dropout medium lacking tryptophan, leucine, and uracil (SDC‐Trp, Leu, Ura; 2% glucose, 2% agar) for single colony isolation. […] Absorbance at wavelengths of 405 and 595 nm was measured using Model 680 Microplate Reader (BioRad Lab., Inc.) to estimate the β‐galactosidase activity as the amount of o‐nitrophenol (ONP) produced and yeast cell density, respectively. The relative β‐galactosidase activity in each well was calculated as A405/A595. […]

[2] = target: T1, interaction between ERα/LBD and FL‐SRC1Box2 (Homo sapiens, UniProt P03372); test: FP competition: inhibition of the ERα/LBD–FL‐SRC1Box2 interaction; format: binding; conditions: ERα/LBD 20 μM, four parameter logistic equation (Fig S5C)
T1 construct: Recombinant ERα/LBD (ERα^302–552) was prepared as previously reported; made in house; host or cells: Escherichia coli BL21-CodonPlus-RP (ERα LBD); the probe is a synthetic peptide
T1 sequence (P03372 302-552): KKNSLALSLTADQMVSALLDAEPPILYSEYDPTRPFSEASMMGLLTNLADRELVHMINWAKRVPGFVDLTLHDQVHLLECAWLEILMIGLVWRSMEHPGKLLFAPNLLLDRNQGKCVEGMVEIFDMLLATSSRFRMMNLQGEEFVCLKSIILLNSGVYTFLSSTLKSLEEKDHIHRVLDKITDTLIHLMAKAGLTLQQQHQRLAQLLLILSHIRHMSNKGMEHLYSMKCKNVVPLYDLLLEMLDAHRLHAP
Method: The binding activity of cHLH‐ERα was examined by fluorescence polarization (FP) analysis.^[ [26], [29] ^] The cHLH peptides were labeled with tetramethylrhodamine (TMR) to provide the fluorescent cHLH peptide TMR‐cHLH‐ERα, and fluorescent TMR‐YT1‐RS as a negative control (Figure 1, Figure S2, Supporting Information).
4. Fluorescence Polarization
The binding activity of the ERα-LBD was examined with 20 nM FL-SRC1Box2 (CH3CO- […]
C(FL)[…]-NH2; FL: Fluorescein) with 10 µM 17β-estradiol in 20 mM
Tris-HCl (pH 8.0), 25 mM NaCl, 10%(v/v) Glycerol, 1 mM TCEP as described. The concentration of FL-SRC1Box2 labeled with Fluorescein and TMR-cHLH-ERα and YT1-RS were determined from the absorption of Fluorescein or Tetramethylrhodamine. The respective peptide was incubated with ERα-LBD for 30 min in 20 mM Tris-HCl (pH 8.0), 25 mM NaCl with 1 mM 17β-estradiol, and the mixture was transferred into a 384-well microtiter well (Non-binding, Black, greiner bio -one) and the fluorescence polarization was measured on a spectrofluorometer (SpectraMax iD5, Molecular Devices) at 20 °C. The KD values were analyzed via a quadratic binding equation (Fig S5A, S5B) with the data fit to calculate by using KaleidaGraph 4.0 as described elsewhere. The IC50 value was estimated as 7.1 µM derived from four parameter logistic equation (Fig. S 5C). […]

[3] = tested on: MCF‐7 breast cancer cells; test: WST‐1 cell viability assay, 17β‐estradiol‐dependent proliferation; format: cell-based; conditions: WST‐1 assay, 3.125 to 25 μM peptide, 10 nM 17β‐estradiol, 72 h
Method: Next, we examined the inhibitory activities of the peptides for the 17β‐estradiol‐dependent proliferation of MCF‐7 breast cancer cells using the WST‐1 assay (Figure 2D). The MCF‐7 cells were incubated with the serially diluted peptides cHLH‐ERα or YT1‐RS in the presence of 10 nM 17β‐estradiol.
For cell viability assay,^[ [35] ^] ER‐positive MCF‐7 cancer cells were grown in the recommended media Dulbecco's modified Eagle medium (DMEM) supplemented with 10% heat‐inactivated fetal bovine serum and with 1% penicillin–streptomycin (Gibco) in a humidified environment with 5% CO2. These cells were incubated in 96‐well plates (Corning) at 5,000 cells/well and cultured for 24 h. The cells were treated with 10 nM 17β‐estradiol for 1 h, then a various concentrations of peptides were added. After culturing the cells for 72 h, the proliferation f cells was measured by using WST‐1 reagent (Roche) according to the standard protocols. The absorbance was measured by using a microplate reader (Model 680, Bio‐Rad). Reliability of the cell viability assay was confirmed by using Tamoxifen (nacalai tesque) as a control.

CC(C)C[C@@H]1NC(=O)[C@H](C)NC(=O)[C@H](C)NC(=O)[C@H](CC(C)C)NC(=O)[C@H](CCCCN)NC(=O)CNC(=O)CNC(=O)CNC(=O)CNC(=O)CNC(=O)CNC(=O)CNC(=O)[C@H](CCC(=O)O)NC(=O)[C@H](CC(C)C)NC(=O)[C@H](CCCNC(=N)N)NC(=O)[C@H](CCCNC(=N)N)NC(=O)[C@H](CC(C)C)NC(=O)[C@H](CCC(=O)O)NC(=O)[C@H](CCCNC(=N)N)NC(=O)[C@H](CCC(=O)O)NC(=O)[C@H](CC(C)C)NC(=O)[C@H](CCCNC(=N)N)NC(=O)[C@H](CCCNC(=N)N)NC(=O)[C@H](CC(C)C)NC(=O)[C@H](CCC(=O)O)NC(=O)[C@H](CCCNC(=N)N)NC(=O)[C@H](C)NC(=O)CNC(=O)CSC[C@@H](C(N)=O)NC(=O)[C@H](Cc2ccc(O)cc2)NC(=O)[C@H](C)NC(=O)[C@H](CCCCN)NC(=O)[C@H](CC(C)C)NC(=O)[C@H](CC(C)C)NC(=O)[C@H](CC(C)C)NC(=O)[C@H](CC(C)C)NC(=O)[C@H](CCCCN)NC(=O)[C@H](CC(C)C)NC(=O)[C@H](CCCCN)NC1=O [cHLH‐ERα] ({CH2CO}-GARELRRLERELRRLEGGGGGGGKLAALKLKLLLLKAYC-NH2; thioether N-39)
inhibition of transcriptional activity (β‐galactosidase) in yeast reporter assay [1]: significantly inhibited transcriptional activity | IC50 [2]: 7.1 µM | inhibitory activity for the 17β‐estradiol‐dependent proliferation of MCF‐7 cells [3]: inhibited the proliferation of MCF‐7 cells dose‐dependently
